According to publication PMC11758220, “Identification of a Privileged Scaffold for Inhibition of Sterol Transport Proteins through the Synthesis and Ring Distortion of Diverse, Pseudo-Natural Products” (ACS Central Science, 2025):

Tests used:
[1] = Stability test of spirooxepinoindole in DMSO and FP assay buffer (LC-LRMS); type: physicochemical
Experimental: Stability test of spirooxepinoindole
The stability of the spirooxepinoindoles in dimethyl sulfoxide and in the assay buffer was tested to be […]
A sample in the FP assay buffer was prepared from the dimethyl sulfoxide stock solution of compound 15b. The dimethyl sulfoxide stock solution was prepared 2021.12.10, and the sample in the assay buffer was prepared 2022.09.28. The samples were monitored by LC-LRMS over time to look for degradation. Both acidic and basic LC-LRMS runs were used since acidic conditions could catalys e the re-condensation of potential hydrolysed spirooxepinoindoles.
Sample: Compound 15b in FP assay buffer: 20 mM HEPES, 300 mM NaCl, 0.01 %v/v Tween -20, 0.5 %v/v glycerol, 2 mM DTT. Concentration: 1.7 mM.
Figure S6: LC-LRMS trace of the stability test of spirooxepinoindole 15b in FP assay buffer measured using the acidic run. (a) UV chromatogram after zero hours, (b) UV chromatogram after four hours, (c) UV chromatogram after 20 hours, (d) MS spectrum.
LC-LRMS (ESI+) m/z: 332.0 found for [M+H]+ for 15b, 332.1 calcd. For C17H19BrNO+. […]
Figure S7: LC-LRMS trace of the stability test of spirooxepinoindole 15b in FP assay buffer measured using the basic run. (a) UV chromatogram after zero hours, (b) UV chromatogram after four hours, (c) UV chromatogram […]
for 20 hours showing no sign of degradation (Figure S6 and Figure S7). […]

panel of STPs = experiment: Screen against a broad panel of the STPs using FP and DSF assays; type: binding, human
Description: Protein expression constructs
Human ASTER domains of Aster-A(359-547), -B(364-552) and -C(318-504) were subcloned into a pGEX-6p-2rbs vector, thus introducing the cloning artifact ‘GPLGS’.3 The pGEX-6P-1-GST-OSBP(377- […]
a gift from James H. Hurley (University of California).4 The pHIS_2His6_Thrombin_STARD4(2-205;C75S) plasmid was a gift from Young Jun Im (Chonnam National University).5 STARD5A was a gift from Nicola Burgess-Brown (Addgene plasmid #42392; http://n2t.net/addgene:42392; […]
Protein expression and purification […]
vectors including an N-terminal PreScission-cleavable glutathione S-transferase (GST)-tag were expressed in Escherichia coli (E. coli) OverExpress C41 in Terrific Broth (TB) medium for 16 h at 18 °C after the induction with 0.1 mM isopropyl β-D-1-thiogalactopyranoside (IPTG). Cells were harvested at 3500 × g for 15 minutes and lysed by sonication in buffer containing 50 mM HEPES pH 7.5, 300 mM NaCl, 10 %v/v glycerol, 5 mM dithiothreitol (DTT), 0.1 %v/v Triton X-100 and protease inhibitor mix HP plus (Serva). The lysate was purified by affinity chromatography on a GSTrap FF column (Cytiva) using an ÄKTA Start (Cytiva) in buffer containing 50 mM HEPES pH 7.5, 300 mM NaCl, 10 %v/v glycerol, 5 mM DTT and 0.01 %v/v Triton X-100. The GST-tag was cleaved overnight on the column at 4 °C. […]

| SMILES | Stability in FP assay buffer (no sign of degradation) ([1]; 20 mM HEPES, 300 mM NaCl, 0.01 %v/v Tween-20, 0.5 %v/v glycerol, 2 mM DTT, 1.7 mM) [h] | Stability in dimethyl sulfoxide (no sign of degradation) ([1]; DMSO stock solution) | Activity against the panel of STPs (in words) (panel of STPs) |
| --- | --- | --- | --- |
| C[C@]12CC[C@@H]3C[C@H]1CC[C@@]21C(=Nc2ccc(Br)cc21)O3 (racemic) [Compound 15b] | 20 | several months |  |
| CC12CCC3CC1CCC21C(=Nc2ccc(N4CCNCC4)cc21)O3 (stereo not drawn) [Compound 22] |  |  | lost almost all activity |
